# Source: patent US20170209574A1, “COMBINATION THERAPIES” (Novartis AG, priority 2014, published 2017)
# How the values were obtained:
# PD-L1 (CD274) [1] = assay: TaqMan RT PCR of PD-L1 mRNA in UKE-1 tumor xenograft model; type: in vivo, human; settings: tumor xenograft model bearing UKE-1 (MPN line with JAK2V617F mutation); FIG. 6
# Description: (§1) TaqMan RT PCR assays were developed to detect changes of expression levels of PD-L1 (CD274) in cell lines and xenograft tumors. mRNA was isolated from frozen cell pellets or tumor fragments using the Qiagen RNeasy Mini kit. Isolated RNA was frozen at −80° C. RNA quality was checked and RNA was quantified using a 2100 Agilent Bioanalyzer following the protocol for the Agilent RNA 6000 Nano Kit. cDNA was prepared using a High Capacity RNA- to cDNA Kit (Applied Biosystems).
# (§2) Real-time PCR reactions were carried out in 20 μl total volume, including 10 μl of Universal PCR master mix (Applied Biosystems), 1 μl of human PD-L1 (CD274) probe/primer set (Applied Biosystems), and 8 μl of cDNA. Each sample was run in triplicate. The amount of cDNA produced from 25-50 ng of RNA in the reverse transcription reaction was used in each PCR reaction. Due to difference in mRNA levels between PD-L1 and GAPDH, the two real-time PCR reactions were done in separate tubes using same amount of cDNA. The real-time PCR reaction was run on the C1000 Thermal Cycle (BioRad) with the cycle program as follows: a 10 minute incubation at 95° C. followed by 40 cycles of 95° C. for 15 seconds and 60° C. for 1 minute. After the reaction was complete, the PD-L1 average Ct was normalized relative to each Ct value from the GAPDH reference reaction. Each normalized logarithmic value was then converted into a linear value.
# PD-L1 (CD274) [2] = assay: TaqMan RT PCR of PD-L1 mRNA in H3122 cells in vitro; type: cell-based, human; settings: H3122 (NSCLC with ALK translocation) in vitro; FIG. 3
# Description: as §1, §2
# [3] = tested on: ALK-positive NSCLC patients; assay: Clinical study of LDK378 in ALK-positive NSCLC patients; type: in vivo, human; settings: 750 mg; 53.3% of the patients censored
# PD-L1 (CD274) [4] = assay: TaqMan RT PCR of PD-L1 mRNA in LOXIMV1 tumor xenograft model; type: in vivo, human; settings: tumor xenograft model bearing LOXIMV1 (BRAF mutant melanoma); FIG. 4
# Description: as §1, §2
# PD-L1 (CD274) [5] = assay: Flow cytometry of PD-L1 surface expression in EBC-1 cells treated with INC280; type: cell-based, human; settings: EBC-1 cells (NSCLC with cMET amplification), in vitro; INC280 10, 100, 1000 nM for 24, 48, 72 hours; FIG. 1
# Description: PD-L1 (CD274) expression was analyzed in cancer cell lines treated with INC280. Cells were obtained from ATCC and cultured in vitro following ATCC directions. The cell lines used were previously characterized by the Cancer Cell Line Encyclopedia Project (www.broadinstitute.org/ccle/home).
# Cells plated in six-well culture plates were treated with the INC280 at different concentrations (10 nM, 100 nM, and 1000 nM) for 24, 48 and 72 hours. Equal amount of vehicle (DMSO) was used as a control. Cells were washed with PBS and then harvested using a cell scraper.
# For each reaction, 0.5-1×10^6 cells were stained with 200 μL of anti-human monoclonal PD-L1-PE antibody, clone M1H1 (BD) for 30-60 minutes at 4° C. Cells were washed twice and data was acquired using a Canto II with FACSDiva software (BD Bioscience). Data analysis was performed using FlowJo software (Tree Star). Mean fluorescence intensity (MFI) was determined by gating on single cells. Unstained cells were used as a gating control.
# PD-L1 (CD274) [6] = assay: TaqMan RT PCR of PD-L1 mRNA in Hs.746.T tumor xenograft; type: in vivo, human; settings: Hs.746.T tumor (gastric cancer cell with cMET amplification & mutation) xenograft; FIG. 2
# Description: as §1, §2
# [7] = tested on: EGFR mutant (L858R, ex19del and T790M) cancer models; settings: cited from earlier work
# PBMCs = assay: Cytokine analysis (Luminex) of anti-CD3 stimulated PBMCs; type: cell-based, human; settings: suboptimal anti-CD3 0.005 ug/ml, LCL161 1, 50, 100 or 1000 nM, day 5 supernatants
# Description: Blood was obtained from normal healthy donors. Peripheral blood mononuclear cells (PBMCs) were isolated by centrifuging blood in CPT™ tubes for 18 minutes at 1800×g. Cells were washed twice with cold PBS, enumerated and then stimulated in 96-well round bottomed tissue culture plates (500,000 cells per well) for 5 days at 37° C., 5% CO2. Cells were either left untreated (DMSO control) or treated with different concentrations of LCL161 (1, 50, 100, or 1000 nM). For the cytokine analyses, cells were stimulated with a suboptimal anti-CD3 stimulus (0.005 ug/ml of soluble clone UCHT1). At day 5 post stimulation, supernatants were collected and analyzed for cytokines (Luminex).
# [8] = tested on: human CD4+ and CD8+ T cells; assay: CFSE proliferation analysis of anti-CD3 stimulated PBMCs (FACS); type: cell-based; settings: 1 ug/ml soluble anti-CD3, increasing concentrations of LCL161, 5 days
# Description: For the proliferation analyses, cells were labeled with 5 uM carboxyfluorescein diacetate succinimidyl ester (CFSE) before stimulation, and then treated with 1 ug/ml soluble anti-CD3. Covalently bound CFSE is divided equally between daughter cells, allowing discrimination of successive rounds of cell division and to track proliferating cells (Lyons et al., Curr Protoc Cytom. 2013; Chapter 9: Unit 9.11). PBMCs were stimulated in the presence of increasing concentrations of LCL161 (or DMSO control) for 5 days. At day 5 post stimulation, cells were harvested, stained with anti-CD4, -CD8, -PD-1, or -CD127, followed by FACS analysis. Results for one donor are shown. Similar results were obtained with PBMCs from 4 other donors.
# TIM-3 = assay: CyTOF mass cytometry of PBMCs (immune checkpoint modulation); type: cell-based, human; settings: PBMCs +/- 100 ng/mL anti-CD3, 100 nM LCL161, 4 days; monocytes, naive, memory and activated T killer cells, memory T helper cells; FIG. 9
# Description: PBMCs were isolated from healthy donors via BD CPT™ vacutainer tubes. 1 million cells/mL were plated in RPMI+10% FBS+/−100 ng/mL of anti-CD3 antibody+/−DMSO or 100 nM LCL161 for 4 days. Cells were harvested, washed, stained with a panel of metal-conjugated antibodies listed below in Table 2 for analysis by CyTOF mass cytometry. Data were visualized by SPADE using Cytobank webware. SPADE and its use are described, e.g., in Peng et al., Nature Biotechnology, 29, 886-891 (2011); Sean et al, Science, 332 (6030): 687-696 (2011).
# A Panel of Metal-Conjugated Antibodies for Analysis by CyTOF Mass Cytometry
# PD-L1 (CD274) [9] = assay: TaqMan RT PCR of PD-L1 mRNA in HEYA8 tumor xenograft model; type: in vivo, human; settings: tumor xenograft model bearing HEYA8 (KRAS mutant ovarian cancer); FIG. 5
# Description: as §1, §2
smiles,measurement,setting,value
"N#CC[C@H](C1CCCC1)n1cc(-c2ncnc3[nH]ccc23)cn1 [INC424, (3R)-3-cyclopentyl-3-[4-(7H-pyrrolo-[2,3-d]pyrimidin-4-yl)-1H-pyrazol-1-yl]propanenitrile]",PD-L1 mRNA,PD-L1 (CD274) [1],Downregulation of PD-L1 mRNA
"Cc1cc(Nc2ncc(Cl)c(Nc3ccccc3S(=O)(=O)C(C)C)n2)c(OC(C)C)cc1C1CCNCC1 [LDK378, 5-chloro-N2-(2-isopropoxy-5-methyl-4-(piperidin-4-yl)-phenyl)-N4-[2-(propane-2-sulfonyl)-phenyl]-pyrimidine-2,4-diamine]",PD-L1 mRNA,PD-L1 (CD274) [2],Inhibition of PD-L1 mRNA
same,median progression-free survival (PFS),[3],8.21 months
"COC(=O)N[C@@H](C)CNc1nccc(-c2cn(C(C)C)nc2-c2cc(Cl)cc(NS(C)(=O)=O)c2F)n1 [LGX818, methyl (S)-(1-((4-(3-(5-chloro-2-fluoro-3-(methylsulfonamido)phenyl)-1-isopropyl-1H-pyrazol-4-yl)pyrimidin-2-yl)amino)propan-2-yl)carbamate]",PD-L1 mRNA,PD-L1 (CD274) [4],Downregulation of PD-L1 mRNA
"CNC(=O)c1ccc(-c2cnc3ncc(Cc4ccc5ncccc5c4)n3n2)cc1F [INC280, 2-fluoro-N-methyl-4-[7-(quinolin-6-ylmethyl)imidazo[1,2-b][1,2,4]triazin-2-yl]benzamide]",surface expression of PD-L1 (flow cytometry),PD-L1 (CD274) [5],significant downregulation of surface expression of PD-L1
same,PD-L1 expression (mRNA),PD-L1 (CD274) [6],Inhibition of PD-L1 expression (mRNA)
"Cc1cc(C(=O)Nc2nc3cccc(Cl)c3n2[C@@H]2CCCCN(C(=O)/C=C/CN(C)C)C2)ccn1 [EGF816, (R,E)-N-(7-chloro-1-(1-(4-(dimethylamino)but-2-enoyl)azepan-3-yl)-1H-benzo[d]imidazol-2-yl)-2-methylisonicotinamide]",efficacy in EGFR mutant cancer models,"[7]; L858R, ex19del and T790M, in vitro and in vivo",significant efficacy
same,WT EGFR inhibition,[7]; at clinically relevant efficacious concentrations,no indication of WT EGFR inhibition
"CN[C@@H](C)C(=O)N[C@H](C(=O)N1CCC[C@H]1c1nc(C(=O)c2ccc(F)cc2)cs1)C1CCCCC1 [LCL161, (S)—N—((S)-1-cyclohexyl-2-((S)-2-(4-(4-fluorobenzoyl)thiazol-2-yl)pyrrolidin-1-yl)-2-oxoethyl)-2-(methylamino)propanamide]",IFN-gamma production,PBMCs; FIG. 7A,"increases in immune-active cytokine, IFN-gamma"
same,IL-10 production,PBMCs; FIG. 7B,reduction in immune-suppressive cytokine IL-10
same,proliferation of CD4+ T cells (CFSE dilution),[8]; FIG. 8A,enhanced proliferation
same,proliferation of CD8+ T cells (CFSE dilution),[8]; FIG. 8B,enhanced proliferation
same,TIM-3 expression,TIM-3,increase in TIM-3 expression
"Cn1cnc2c(F)c(Nc3ccc(Br)cc3F)c(C(=O)NOCCO)cc21 [MEK162, 5-((4-bromo-2-fluorophenyl)amino)-4-fluoro-N-(2-hydroxyethoxy)-1-methyl-1H-benzo[d]imidazole-6-carboxamide]",PD-L1 mRNA,PD-L1 (CD274) [9],Downregulation of PD-L1 mRNA
